# Measured values taken from the supplement of paper PMC10307832.
# How the values were obtained:
# Assay in all cases: relative viability (nuclei count vs DMSO), 5 days (fraction); higher = more cells survive
# Dinaciclib + Pictilisib = compound: CCc1cnn2c(NCc3ccc[n+]([O-])c3)cc(N3CCCC[C@H]3CCO)nc12 [Dinaciclib] + CS(=O)(=O)N1CCN(Cc2cc3nc(-c4cccc5[nH]ncc45)nc(N4CCOCC4)c3s2)CC1 [Pictilisib] (partner 1 µM)
# How it was run: (§1)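 Values are medians from duplicate plates. Each reflects relative viability, defined as the nuclei count of treated wells over that of vehicle wells. Lung cancer cell lines in 1536-well plates were pin-tool dosed one day after seeding with one drug alone or with a fixed anchor-drug dose plus five library-drug doses (not always all listed) in √10 steps, then fixed, stained and imaged at 4× after 5 days.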
# Dinaciclib + Crizotinib = compound: CCc1cnn2c(NCc3ccc[n+]([O-])c3)cc(N3CCCC[C@H]3CCO)nc12 [Dinaciclib] + C[C@@H](Oc1cc(-c2cnn(C3CCNCC3)c2)cnc1N)c1c(Cl)ccc(F)c1Cl [Crizotinib] (partner 1 µM)
# How it was run: as §1
# Dinaciclib + Luminespib = compound: CCc1cnn2c(NCc3ccc[n+]([O-])c3)cc(N3CCCC[C@H]3CCO)nc12 [Dinaciclib] + CCNC(=O)c1noc(-c2cc(C(C)C)c(O)cc2O)c1-c1ccc(CN2CCOCC2)cc1 [Luminespib] (partner 0.01 µM)
# How it was run: as §1
# Dinaciclib + Linsitinib = compound: CCc1cnn2c(NCc3ccc[n+]([O-])c3)cc(N3CCCC[C@H]3CCO)nc12 [Dinaciclib] + C[C@]1(O)C[C@@H](c2nc(-c3ccc4ccc(-c5ccccc5)nc4c3)c3c(N)nccn32)C1 [Linsitinib] (partner 1 µM)
# How it was run: as §1
# Dinaciclib + Phenformin = compound: CCc1cnn2c(NCc3ccc[n+]([O-])c3)cc(N3CCCC[C@H]3CCO)nc12 [Dinaciclib] + N=C(N)NC(=N)NCCc1ccccc1 [Phenformin] (partner 250 µM)
# How it was run: as §1
Cell Line,relative viability (Dinaciclib + Pictilisib; first compound 0.009487 µM),relative viability (Dinaciclib + Pictilisib; first compound 0.03 µM),relative viability (Dinaciclib + Pictilisib; first compound 0.09487 µM),relative viability (Dinaciclib + Pictilisib; first compound 0.3 µM),relative viability (Dinaciclib + Crizotinib; first compound 0.009487 µM),relative viability (Dinaciclib + Crizotinib; first compound 0.03 µM),relative viability (Dinaciclib + Crizotinib; first compound 0.09487 µM),relative viability (Dinaciclib + Crizotinib; first compound 0.3 µM),relative viability (Dinaciclib + Luminespib; first compound 0.009487 µM),relative viability (Dinaciclib + Luminespib; first compound 0.03 µM),relative viability (Dinaciclib + Luminespib; first compound 0.09487 µM),relative viability (Dinaciclib + Luminespib; first compound 0.3 µM),relative viability (Dinaciclib + Linsitinib; first compound 0.009487 µM),relative viability (Dinaciclib + Linsitinib; first compound 0.03 µM),relative viability (Dinaciclib + Linsitinib; first compound 0.09487 µM),relative viability (Dinaciclib + Linsitinib; first compound 0.3 µM),relative viability (Dinaciclib + Phenformin; first compound 0.009487 µM),relative viability (Dinaciclib + Phenformin; first compound 0.03 µM),relative viability (Dinaciclib + Phenformin; first compound 0.09487 µM),relative viability (Dinaciclib + Phenformin; first compound 0.3 µM)
NCI-H2009,0.661,0.0836,0.0705,0.0666,1.13,0.0796,0.0746,0.0749,0.649,0.0986,0.101,0.101,1.12,0.283,0.105,0.104,0.463,0.159,0.11,0.105
HCC-78,0.197,0.226,0.105,0.11,0.352,0.181,0.108,0.137,–,–,–,–,0.556,0.348,0.116,0.14,0.744,0.332,0.17,0.165
NCI-H2170,0.27,0.151,0.163,0.196,0.86,0.188,0.157,0.181,0.608,0.142,0.142,0.146,–,–,–,–,0.415,0.133,0.119,0.152
NCI-H1793,0.288,0.177,0.145,0.2,–,–,–,–,0.218,0.107,0.144,0.12,0.818,0.187,0.119,0.128,0.374,0.235,0.115,0.119
HCC-366,0.196,0.0396,0.0372,0.044,0.358,0.0242,0.0111,0.0131,–,–,–,–,0.543,0.0298,0.0149,0.0167,0.593,0.137,0.03,0.0292
NCI-H1651,0.507,0.115,0.0517,0.0439,0.941,0.685,0.188,0.0849,0.695,0.554,0.0648,0.0578,0.775,0.307,0.0746,0.0549,0.26,0.219,0.0746,0.0547
LC-2-ad,0.305,0.071,0.0698,0.0506,0.441,0.119,0.109,0.116,0.877,0.23,0.23,0.178,0.745,0.0866,0.0684,0.0797,0.334,0.219,0.181,0.18
HCC-827,0.998,0.446,0.242,0.223,0.946,0.333,0.16,0.15,0.805,0.108,0.103,0.107,0.951,0.747,0.181,0.147,0.385,0.339,0.121,0.123
SK-LU-1,0.57,0.167,0.155,0.152,0.602,0.207,0.19,0.204,0.198,0.138,0.115,0.118,0.859,0.218,0.165,0.221,0.394,0.11,0.133,0.129
ABC-1,0.658,0.157,0.163,0.136,1.16,0.178,0.11,0.0832,0.581,0.209,0.173,0.178,0.665,0.278,0.166,0.126,0.209,0.157,0.13,0.132
NCI-H1703,0.26,0.154,0.127,0.133,0.61,0.229,0.0855,0.106,–,–,–,–,0.767,0.25,0.0664,0.0983,–,–,–,–
COR-L 105,0.306,0.23,0.224,0.25,0.923,0.192,0.171,0.189,0.509,0.214,0.229,0.169,0.55,0.239,0.245,0.249,0.384,0.217,0.208,0.201
LOU-NH91,0.507,0.288,0.254,0.229,0.738,0.348,0.29,0.267,0.324,0.294,0.224,0.16,0.94,0.467,0.236,0.245,0.645,0.249,0.208,0.151
NCI-H661,0.346,0.181,0.175,0.177,1.02,0.474,0.145,0.166,0.906,0.195,0.169,0.148,0.452,0.184,0.144,0.2,0.192,0.209,0.185,0.185
NCI-H1650,0.536,0.146,0.101,0.112,0.97,0.121,0.0986,0.113,0.226,0.204,0.158,0.172,–,–,–,–,0.262,0.139,0.151,0.126
NCI-H522,–,–,–,–,–,–,–,–,1.2,0.653,0.465,0.276,–,–,–,–,0.598,0.5,0.341,0.339
NCI-H2342,–,–,–,–,–,–,–,–,0.715,0.511,0.27,0.255,–,–,–,–,0.737,0.543,0.288,0.303
SW 900,–,–,–,–,–,–,–,–,0.19,0.176,0.0768,0.0536,–,–,–,–,0.612,0.141,0.0751,0.101
IA-LM,0.327,0.0323,0.0279,0.0329,0.725,0.0572,0.0441,0.0336,–,–,–,–,0.664,0.27,0.028,0.0252,–,–,–,–
